Measurements published in patent US9944611B2, “Polymerizable resins containing a 1,3,5-hexahydro-1,3,5-triazine moiety, methods of making, and dental compositions containing the same” (DENTSPLY SIRONA INC., priority 2013, dated 2018).

Experiment: Solubility of hydroxy-terminated TAT derivatives in water/EtOH (1:1)
Format: physicochemical
Source text: A sample of each of the examples was then subjected to further characterization and testing, including by NMR, along with pure TAT. The results are summarized in Table 1, which illustrates, among other things, that the increased amounts of DEA improved the solubility: […]

## C=CC(=O)N1CN(C(=O)C=C)CN(C(=O)C=C)C1 [Parent Sample (TAT), 1,3,5-triacryloyl-hexahydro-1,3,5-triazine]
  Solubility in water/EtOH (1:1) @ 25% w/w: insoluble
